{
  "source": "patent US20070128217A1",
  "about": "(priority 2003, published 2007)",
  "key": {"[1]": {"test_system": "control sera (pooled serum of ten healthy LUMC hospital workers; commercial negative donor pooled serum from the Dutch bloodbank)", "format": "binding, human", "set-up": "Binding of Control serum LUMC to linear peptides / Binding of Control serum Blood-bank to linear peptides / Binding of Control serum LUMC to looped peptides / Binding of Control Serum Blood-Bank to Looped peptides / Binding of Control serum LUMC to linear peptides of the protein M of SARS-CoV Urbani / Binding of Control serum Blood-bank to linear peptides of the protein M of SARS-CoV Urbani / Binding of Control serum LUMC to looped peptides of the protein M of SARS-CoV Urbani / Binding of Control Serum Blood-Bank to Looped peptides of the protein M of SARS-CoV Urbani: unit not given here"}, "[2]": {"test_system": "rabbit serum obtained by immunizing a rabbit with the SARS-CoV strain Frankfurt 1", "format": "binding", "set-up": "Binding of a rabbit serum to linear peptides / Binding of a rabbit serum to looped peptides / Rabbit serum linear peptides / Rabbit serum looped peptides / Binding of a rabbit serum to linear peptides of protein N of SARS-CoV Urbani (Rabbit serum linear peptides) / Binding of a rabbit serum to looped/cyclic peptides of protein N of SARS-CoV Urbani (Rabbit serum looped peptides): unit not given here"}, "[3]": {"test_system": "antibodies in sera from SARS patients (sera 1a, 1b, 2, 6, 37, 62, London, SARS-yellow, SARS-green)", "format": "binding, human", "set-up": "Binding of serum 6 to linear peptides of protein X1 of SARS-CoV Urbani / Binding of serum 37 to linear peptides of protein X1 of SARS-CoV Urbani / Binding of serum 6 to looped/cyclic peptide (PEPSCAN-ELISA) / Binding of serum 37 to looped/cyclic peptide (PEPSCAN-ELISA) / Binding of serum 37 to looped/cyclic peptides of protein X1 of SARS-CoV Urbani / Binding of serum 6 to linear peptides of protein X2 / Binding of serum 37 to linear peptides of protein X2 / Binding of serum 37 to looped/cyclic peptides of protein X2 of SARS-CoV Urbani / Binding of serum 6 to linear peptides of protein M of SARS-CoV Urbani / Binding of serum 37 to linear peptides of protein M of SARS-CoV Urbani / Binding of serum 6 to looped/cyclic peptides of protein M of SARS-CoV Urbani / Binding of serum 37 to looped/cyclic peptides of protein M of SARS-CoV Urbani / Binding of serum 6 to linear peptides of protein X3 of SARS-CoV Urbani / Binding of serum 37 to linear peptides of protein X3 of SARS-CoV Urbani / Binding of serum 37 to looped/cyclic peptides of protein X3 of SARS-CoV Urbani / Binding of serum 6 to linear peptides of protein X4 of SARS-CoV Urbani / Binding of serum 37 to linear peptides of protein X4 of SARS-CoV Urbani / Binding of serum 37 to looped/cyclic peptides of protein X4 of SARS-CoV Urbani / Binding of serum 6 to linear peptides of protein X5 of SARS-CoV Urbani / Binding of serum 37 to linear peptides of protein X5 of SARS-CoV Urbani / Binding of serum 37 to looped/cyclic peptides of protein X5 of SARS-CoV Urbani / Binding of serum 6 to linear peptides of protein N of SARS-CoV Urbani / Binding of serum 37 to linear peptides of protein N of SARS-CoV Urbani / Binding of serum 6 to linear peptide (PEPSCAN-ELISA) / Binding of serum 1a to looped/cyclic peptides of protein N of SARS-CoV Urbani / Binding of serum 1b to looped/cyclic peptides of protein N of SARS-CoV Urbani / Binding of serum 2 to looped/cyclic peptides of protein N of SARS-CoV Urbani / Binding of serum 6 to looped/cyclic peptides of protein N of SARS-CoV Urbani / Binding of serum 37 to looped/cyclic peptides of protein N of SARS-CoV Urbani / Binding of serum 62 to looped/cyclic peptides of protein N of SARS-CoV Urbani / Binding of serum London to looped/cyclic peptides of protein N of SARS-CoV Urbani / Binding of serum SARS-green to looped/cyclic peptides of protein N of SARS-CoV Urbani: unit not given here"}},
  "data": [
    {"sequence": "VAFLAVFQSATKIIA", "values": [
      {"measurement": "Binding of Control Serum Blood-Bank to Looped peptides", "setting": "[1]", "result": 0.7},
      {"measurement": "Binding of Control serum Blood-bank to linear peptides", "setting": "[1]", "result": 0.6},
      {"measurement": "Binding of Control serum LUMC to linear peptides", "setting": "[1]", "result": 0.5},
      {"measurement": "Binding of Control serum LUMC to looped peptides", "setting": "[1]", "result": 0.7},
      {"measurement": "Binding of a rabbit serum to linear peptides", "setting": "[2]", "result": 0.2},
      {"measurement": "Binding of a rabbit serum to looped peptides", "setting": "[2]", "result": 0.6},
      {"measurement": "Binding of serum 1a to linear peptides of protein X1 of SARS-CoV Urbani", "setting": "[3]", "result": 0.6},
      {"measurement": "Binding of serum 1a to looped/cyclic peptide (PEPSCAN-ELISA)", "setting": "[3]", "result": 0.6},
      {"measurement": "Binding of serum 1b to linear peptides of protein X1 of SARS-CoV Urbani", "setting": "[3]", "result": 0.5},
      {"measurement": "Binding of serum 1b to looped/cyclic peptide (PEPSCAN-ELISA)", "setting": "[3]", "result": 0.4},
      {"measurement": "Binding of serum 2 to linear peptides of protein X1 of SARS-CoV Urbani", "setting": "[3]", "result": 0.5},
      {"measurement": "Binding of serum 2 to looped/cyclic peptide (PEPSCAN-ELISA)", "setting": "[3]", "result": 0.6},
      {"measurement": "Binding of serum 6 to linear peptides of protein X1 of SARS-CoV Urbani", "setting": "[3]", "result": 0.7},
      {"measurement": "Binding of serum 6 to looped/cyclic peptide (PEPSCAN-ELISA)", "setting": "[3]", "result": 0.7},
      {"measurement": "Binding of serum 37 to linear peptides of protein X1 of SARS-CoV Urbani", "setting": "[3]", "result": 0.6},
      {"measurement": "Binding of serum 37 to looped/cyclic peptide (PEPSCAN-ELISA)", "setting": "[3]", "result": 0.6},
      {"measurement": "Binding of serum 62 to linear peptides of protein X1 of SARS-CoV Urbani", "setting": "[3]", "result": 0.6},
      {"measurement": "Binding of serum 62 to looped/cyclic peptide (PEPSCAN-ELISA)", "setting": "[3]", "result": 0.6},
      {"measurement": "Binding of serum London to linear peptides of protein X1 of SARS-CoV Urbani", "setting": "[3]", "result": 0.2},
      {"measurement": "Binding of serum London to looped/cyclic peptide (PEPSCAN-ELISA)", "setting": "[3]", "result": 0.7},
      {"measurement": "Binding of serum SARS-green to linear peptides of protein X1 of SARS-CoV Urbani", "setting": "[3]", "result": 0.2},
      {"measurement": "Binding of serum SARS-green to looped/cyclic peptide (PEPSCAN-ELISA)", "setting": "[3]", "result": 0.4},
      {"measurement": "Binding of serum SARS-yellow to linear peptides of protein X1 of SARS-CoV Urbani", "setting": "[3]", "result": 0.4},
      {"measurement": "Binding of serum SARS-yellow to looped/cyclic peptide (PEPSCAN-ELISA)", "setting": "[3]", "result": 0.5}
    ]},
    {"sequence": "VATSRTLSYYKLGAS", "values": [
      {"measurement": "Binding of Control Serum Blood-Bank to Looped peptides of the protein M of SARS-CoV Urbani", "setting": "[1]", "result": 0.5},
      {"measurement": "Binding of Control serum Blood-bank to linear peptides of the protein M of SARS-CoV Urbani", "setting": "[1]", "result": 0.8},
      {"measurement": "Binding of Control serum LUMC to linear peptides of the protein M of SARS-CoV Urbani", "setting": "[1]", "result": 0.6},
      {"measurement": "Binding of Control serum LUMC to looped peptides of the protein M of SARS-CoV Urbani", "setting": "[1]", "result": 0.6},
      {"measurement": "Rabbit serum linear peptides", "setting": "[2]", "result": 0.3},
      {"measurement": "Rabbit serum looped peptides", "setting": "[2]", "result": 0.7},
      {"measurement": "Binding of serum 1a to linear peptides of protein M of SARS-CoV Urbani", "setting": "[3]", "result": 0.6},
      {"measurement": "Binding of serum 1a to looped/cyclic peptides of protein M of SARS-CoV Urbani", "setting": "[3]", "result": 0.8},
      {"measurement": "Binding of serum 1b to linear peptides of protein M of SARS-CoV Urbani", "setting": "[3]", "result": 0.5},
      {"measurement": "Binding of serum 1b to looped/cyclic peptides of protein M of SARS-CoV Urbani", "setting": "[3]", "result": 0.6},
      {"measurement": "Binding of serum 2 to linear peptides of protein M of SARS-CoV Urbani", "setting": "[3]", "result": 0.6},
      {"measurement": "Binding of serum 2 to looped/cyclic peptides of protein M of SARS-CoV Urbani", "setting": "[3]", "result": 0.7},
      {"measurement": "Binding of serum 6 to linear peptides of protein M of SARS-CoV Urbani", "setting": "[3]", "result": 0.8},
      {"measurement": "Binding of serum 6 to looped/cyclic peptides of protein M of SARS-CoV Urbani", "setting": "[3]", "result": 0.6},
      {"measurement": "Binding of serum 37 to linear peptides of protein M of SARS-CoV Urbani", "setting": "[3]", "result": 0.5},
      {"measurement": "Binding of serum 37 to looped/cyclic peptides of protein M of SARS-CoV Urbani", "setting": "[3]", "result": 0.7},
      {"measurement": "Binding of serum 62 to linear peptides of protein M of SARS-CoV Urbani", "setting": "[3]", "result": 0.5},
      {"measurement": "Binding of serum 62 to looped/cyclic peptides of protein M of SARS-CoV Urbani", "setting": "[3]", "result": 0.6},
      {"measurement": "Binding of serum London to linear peptides of protein M of SARS-CoV Urbani", "setting": "[3]", "result": 0.3},
      {"measurement": "Binding of serum London to looped/cyclic peptides of protein M of SARS-CoV Urbani", "setting": "[3]", "result": 0.2},
      {"measurement": "Binding of serum SARS-green to linear peptides of protein M of SARS-CoV Urbani", "setting": "[3]", "result": 0.4},
      {"measurement": "Binding of serum SARS-green to looped/cyclic peptides of protein M of SARS-CoV Urbani", "setting": "[3]", "result": 0.3},
      {"measurement": "Binding of serum SARS-yellow to linear peptides of protein M of SARS-CoV Urbani", "setting": "[3]", "result": 0.3},
      {"measurement": "Binding of serum SARS-yellow to looped/cyclic peptides of protein M of SARS-CoV Urbani", "setting": "[3]", "result": 0.6}
    ]}
  ]
}
